In ChEMBL document CHEMBL4602605, “Fluoroquinolones structural and medicinal developments (2013-2018): Where are we now?” (Bioorg Med Chem, 2019) one finds MIC data, which are given here for 3 molecules.

This assay concerns Mycobacterium tuberculosis. The experiment in a line: Antimicrobial activity against rifampin and isoniazid resistant Mycobacterium tuberculosis Beijing harboring rpoB Ser 531-Leu 315 and katC Ser-Thr mutant incubated for 10 days by microbroth dilution method. In kind it is functional. On the technique in general: Broth dilution looks for growth in wells or tubes with falling amounts of substance.

Structures are written as SMILES. Converted amounts (≈) assume the structure as drawn.

In turn, `CCn1cc(C(=O)O)c(=O)c2cc(F)c(-c3cc4cc(C(C)(C)C)cc(C(C)(C)C)c4oc3=O)cc21` registered an MIC of 3.1 mg/L (≈ 6.31 µM).
Then `CCOc1cccc2cc(-c3cc4c(cc3F)c(=O)c(C(=O)O)cn4CC)c(=O)oc12`, with 1.5 mg/L (≈ 3.54 µM).
In the case of `CCn1cc(C(=O)O)c(=O)c2cc(F)c(-c3cc4cc(Br)ccc4oc3=O)cc21` it was 6.2 mg/L (≈ 13.5 µM).

In general, MIC refers to the lowest concentration found to suppress growth. Low values mean a more susceptible organism, high ones a less susceptible organism.
